The record followed here is patent US8785445B2 (Array BioPharma Inc., priority 2008, dated 2014).

Like-named read-outs stand apart in the source and are kept apart here.

This test has as its target T1, human DP2 (Homo sapiens, UniProt Q9Y5Y4).
T1 construct: expressed in transfected cells; membranes prepared
T1 sequence (Q9Y5Y4 1-395): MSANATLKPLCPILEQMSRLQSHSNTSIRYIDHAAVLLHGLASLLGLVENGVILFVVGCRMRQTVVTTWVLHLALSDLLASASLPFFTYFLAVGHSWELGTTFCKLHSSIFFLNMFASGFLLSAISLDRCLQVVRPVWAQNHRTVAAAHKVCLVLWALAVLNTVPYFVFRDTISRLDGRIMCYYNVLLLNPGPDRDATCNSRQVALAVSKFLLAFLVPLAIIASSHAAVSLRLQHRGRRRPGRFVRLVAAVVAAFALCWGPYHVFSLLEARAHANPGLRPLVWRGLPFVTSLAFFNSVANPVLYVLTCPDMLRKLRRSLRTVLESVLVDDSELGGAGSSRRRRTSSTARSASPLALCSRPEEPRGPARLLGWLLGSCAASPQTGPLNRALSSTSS
The test can be described thus: DP-2 binding inhibition assay (3H-PGD2, membranes of DP2-expressing K562 cells). The procedure, abridged:
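Displacement of 3H-PGD2 was measured by filtration and scintillation counting after 60 min at room temperature, using membranes of DP2-transfected K562 cells in 0.1% BSA, 1% HSA or 4% HSA.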

[1] abbreviates: 4% HSA, read-out: EC50 (nM) 4% HSA.
The mark [2] stands for this setting: 0.1% BSA, read-out: EC50 (nM) 0.1% BSA.

With `COc1ccc(-c2cccc(CCNC(=O)c3ccc(Oc4cc5c(cc4Cl)C(C(=O)O)CCO5)cc3)n2)cn1` (stereo not drawn) [Example 215, 6-chloro-7-(4-(2-(6′-methoxy-2,3′-bipyridin-6-yl)ethylcarbamoyl)phenoxy)chroman-4-carboxylic acid], under setting [1], the EC50 (usually the concentration that produces a half-maximal response) amounted to 1600 nM. Turning to `O=C(Nc1ccc(-c2cccc(Cl)c2)cn1)c1ccc(Oc2cc3c(cc2Cl)C(C(=O)O)CCO3)cc1` (stereo not drawn) [Example 116, 6-Chloro-7-(4-(5-(3-chlorophenyl)pyridin-2-ylcarbamoyl)phenoxy)chroman-4-carboxylic acid], the EC50 under setting [1] was determined as 82.8 nM. Take `COc1ccc(-c2ccc(NC(=O)c3ccc(Oc4cc5c(cc4Cl)C(C(=O)O)CCO5)cc3)nn2)c(OC)n1` (stereo not drawn) [Example 69, Sodium 6-chloro-7-(4-(6-(2,6-dimethoxypyridin-3-yl)pyridazin-3-ylcarbamoyl)phenoxy)chroman-4-carboxylate]: under setting [1], the EC50 was determined as 1780 nM. In the case of `O=C(Nc1ccc(-c2cccc(Cl)c2)nc1)c1ccc(Oc2cc3c(cc2Cl)C(C(=O)O)CCO3)cc1` (stereo not drawn) [Example 124, 6-Chloro-7-(4-(6-(3-chlorophenyl)pyridin-3-ylcarbamoyl)phenoxy)chroman-4-carboxylic acid], the concentration for a half-maximal effect (EC50) under setting [1] stood at 133 nM. Consider `COc1cc(Cl)ccc1-c1cccc(NC(=O)c2ccc(Oc3cc4c(cc3Cl)C(C(=O)O)CCO4)cc2)n1` (stereo not drawn) [Example 104, Sodium 6-chloro-7-(4-(6-(4-chloro-2-methoxyphenyl)pyridin-2-ylcarbamoyl)phenoxy)chroman-4-carboxylate], for which the concentration for a half-maximal effect (EC50) under setting [1] stood at 116 nM.

On to `O=C(Nc1cnc(-c2ccc(Cl)cc2)cn1)c1ccc(Oc2cc3c(cc2Cl)C(C(=O)O)CCO3)cc1` (stereo not drawn) [Example 95, 6-Chloro-7-(4-(5-(4-chlorophenyl)pyrazin-2-ylcarbamoyl)phenoxy)chroman-4-carboxylic acid], for which, under setting [1], the EC50 was 365 nM. In the case of `O=C(Nc1cccc(-c2cccc(Cl)c2)n1)c1ccc(Oc2cc3c(cc2Cl)C(C(=O)O)CCO3)cc1` (stereo not drawn) [Example 34, 6-Chloro-7-(4-(6-(3-chlorophenyl)pyridin-2-ylcarbamoyl)phenoxy)chroman-4-carboxylic acid], under setting [1], the half-maximal effective concentration (EC50) turned out to be 241 nM. Turning to `Cc1noc(C)c1CCNC(=O)c1ccc(Oc2cc3c(cc2C#N)C(C(=O)O)CCO3)cc1` (stereo not drawn) [Example 198, 6-cyano-7-(4-(2-(3,5-dimethylisoxazol-4-yl)ethylcarbamoyl)phenoxy)chroman-4-carboxylic acid], the EC50 under setting [2] was found to be 1240 nM. For `Cc1cc(C(=O)Nc2ccc(C(F)(F)F)nc2)ccc1Oc1cc2c(cc1C#N)C(C(=O)O)CCO2` (stereo not drawn) [Example 14, 6-Cyano-7-(2-methyl-4-(6-(trifluoromethyl)pyridin-3-ylcarbamoyl)phenoxy)chroman-4-carboxylic acid], the EC50 under setting [2] was found to be 55.8 nM.

As for `O=C(Nc1ccc(-c2ccc(C(F)(F)F)cc2)nn1)c1ccc(Oc2cc3c(cc2Cl)C(C(=O)O)CCO3)cc1` (stereo not drawn) [Example 98, Sodium 6-chloro-7-(4-(6-(4-(trifluoromethyl)phenyl)pyridazin-3-ylcarbamoyl)phenoxy)chroman-4-carboxylate], the half-maximal effective concentration (EC50) was 17.9 nM under setting [2] and 112 nM under setting [1].

Regarding `O=C(Nc1nc2ccc(C(F)(F)F)cc2s1)c1ccc(Oc2cc3c(cc2Cl)C(C(=O)O)CCO3)cc1` (stereo not drawn) [Example 183, 6-Chloro-7-(4-(6-(trifluoromethyl)benzo[d]thiazol-2-ylcarbamoyl)phenoxy)chroman-4-carboxylic acid], the EC50 under setting [1] was 45.8 nM. Take `CN(C)c1nc(C(F)(F)F)ccc1CCNC(=O)c1ccc(Oc2cc3c(cc2Cl)C(C(=O)O)CCO3)cc1` (stereo not drawn) [Example 139, Sodium 6-chloro-7-(4-(2-(2-(dimethylamino)-6-(trifluoromethyl)pyridin-3-yl)ethylcarbamoyl)phenoxy)chroman-4-carboxylate]: the EC50 under setting [1] turned out to be 40 nM. For the compound `O=C(Nc1ccc(-c2cccc(Cl)c2)nc1)c1ccc(Oc2c(Cl)cc3c(c2Cl)OCCC3C(=O)O)cc1` (stereo not drawn) [Example 145, Sodium 6,8-dichloro-7-(4-(6-(3-chlorophenyl)pyridin-3-ylcarbamoyl)phenoxy)-chroman-4-carboxylate], under setting [1], the half-maximal effective concentration (EC50) came out at 160 nM. For `O=C(NCCc1cccc(-c2ccccc2Cl)n1)c1ccc(Oc2cc3c(cc2Cl)C(C(=O)O)CCO3)cc1` (stereo not drawn) [Example 221, 6-chloro-7-(4-(2-(6-(2-chlorophenyl)pyridin-2-yl)ethylcarbamoyl)phenoxy) chroman-4-carboxylic acid], the EC50 under setting [1] turned out to be 962 nM. The same measure, in the same setting: with `O=C(Nc1ccn(-c2ccccc2Cl)n1)c1ccc(Oc2cc3c(cc2Cl)C(C(=O)O)CCO3)cc1` (stereo not drawn) [Example 174, 6-chloro-7-(4-(1-(2-chlorophenyl)-1H-pyrazol-3-ylcarbamoyl)phenoxy)chroman-4-carboxylic acid] the figure was 47.1 nM.

As for `O=C(Nc1ccc(-c2ccc(Cl)cc2F)nn1)c1ccc(Oc2cc3c(cc2Cl)C(C(=O)O)CCO3)cc1` (stereo not drawn) [Example 72, Sodium 6-chloro-7-(4-(6-(4-chloro-2-fluorophenyl)pyridazin-3-ylcarbamoyl)phenoxy)chroman-4-carboxylate], the EC50 under setting [1] came to 1110 nM.

Turning to `COc1ccc(-c2cccc(CCNC(=O)c3ccc(Oc4cc5c(cc4Cl)C(C(=O)O)CCO5)cc3)n2)cc1` (stereo not drawn) [Example 214, 6-chloro-7-(4-(2-(6-(4-methoxyphenyl)pyridin-2-yl)ethylcarbamoyl)phenoxy)chroman-4-carboxylic acid], the 50% effective concentration (EC50) under setting [1] stood at 1350 nM. With `Cc1cnc(NC(=O)c2ccc(Oc3cc4c(cc3C#N)C(C(=O)O)CCO4)cc2)s1` (stereo not drawn) [Example 176, 6-cyano-7-(4-(5-methylthiazol-2-ylcarbamoyl)phenoxy)chroman-4-carboxylic acid], under setting [2], the EC50 was determined as 62.7 nM.

`N#Cc1cc2c(cc1Oc1ccc(C(=O)Nc3nc4ccccc4o3)cc1)OCCC2C(=O)O` (stereo not drawn) [Example 203, 7-(4-(benzo[d]oxazol-2-ylcarbamoyl)phenoxy)-6-cyanochroman-4-carboxylic acid]: the 50% effective concentration (EC50) under setting [2] was 69 nM.

Consider `O=C(Nc1cccc(-c2cccc(F)c2F)n1)c1ccc(Oc2cc3c(cc2Cl)C(C(=O)O)CCO3)cc1` (stereo not drawn) [Example 90, 6-chloro-7-(4-(6-(2,3-difluorophenyl)pyridin-2-ylcarbamoyl)phenoxy)chroman-4-carboxylic acid], for which, under setting [1], the EC50 amounted to 166 nM. `N#Cc1cc2c(cc1Oc1ccc(C(=O)Nc3nnc(-c4ccc(Cl)cc4)s3)cc1)OCCC2C(=O)O` (stereo not drawn) [Example 147, 7-(4-(5-(4-chlorophenyl)-1,3,4-thiadiazol-2-ylcarbamoyl)phenoxy)-6-cyanochroman-4-carboxylic acid]: the EC50 under setting [1] was 3440 nM. For `O=C(Nc1ccn(-c2ccc(F)c(Cl)c2)n1)c1ccc(Oc2cc3c(cc2Cl)C(C(=O)O)CCO3)cc1` (stereo not drawn) [Example 167, 6-chloro-7-(4-(1-(3-chloro-4-fluorophenyl)-1H-pyrazol-3-ylcarbamoyl)phenoxy)chroman-4-carboxylic acid], the half-maximal effective concentration (EC50) under setting [1] amounted to 46.8 nM. In the case of `O=C(Nc1cccc(-c2cccc(C(F)(F)F)c2)n1)c1ccc(Oc2cc3c(cc2Cl)C(C(=O)O)CCO3)cc1` (stereo not drawn) [Example 112, 6-Chloro-7-(4-(6-(3-(trifluoromethyl)phenyl)pyridin-2-ylcarbamoyl)phenoxy)chroman-4-carboxylic acid], the concentration giving a half-maximal response (EC50) under setting [1] turned out to be 46 nM. In the case of `O=C(Nc1cccc(-c2cc(F)cc(F)c2)n1)c1ccc(Oc2cc3c(cc2Cl)C(C(=O)O)CCO3)cc1` (stereo not drawn) [Example 89, 6-chloro-7-(4-(6-(3,5-difluorophenyl)pyridin-2-ylcarbamoyl)phenoxy)chroman-4-carboxylic acid], the EC50 under setting [1] was 251 nM. On the same count and under the same terms, to `O=C(Nc1ccn(Cc2ccc(Cl)cc2)n1)c1ccc(Oc2cc3c(cc2Cl)C(C(=O)O)CCO3)cc1` (stereo not drawn) [Example 179, 6-chloro-7-(4-(1-(4-chlorobenzyl)-1H-pyrazol-3-ylcarbamoyl)phenoxy)chroman-4-carboxylic acid] belongs 247 nM. Take `N#Cc1cc2c(cc1Oc1ccc(C(=O)Nc3ccc4ccccc4n3)cc1)OCCC2C(=O)O` (stereo not drawn) [Example 3, 6-Cyano-7-(4-(quinolin-2-ylcarbamoyl)phenoxy)chroman-4-carboxylic acid]: the EC50 turned out to be 12.8 nM under setting [2] and 482 nM (1% HSA, read-out: EC50 (nM) 1% HSA). Turning to `O=C(Nc1nc(-c2cccc(Cl)c2)cs1)c1ccc(Oc2cc3c(cc2Cl)C(C(=O)O)CCO3)cc1` (stereo not drawn) [Example 157, 6-chloro-7-(4-(4-(3-chlorophenyl)thiazol-2-ylcarbamoyl)phenoxy)chroman-4-carboxylic acid], the EC50 under setting [1] was 16.6 nM. As for `O=C(Nc1cccc(-c2ccc(Cl)cc2)n1)c1ccc(Oc2cc3c(cc2Cl)C(C(=O)O)CCO3)cc1` (single isomer, unassigned; enantiomer 2) [Example 182, Enantiomer 2 of 6-Chloro-7-(4-(6-(4-chlorophenyl)pyridin-2-ylcarbamoyl)phenoxy)chroman-4-carboxylic acid], the concentration giving a half-maximal response (EC50) under setting [1] turned out to be 22 nM. As for `O=C(NCCc1cccn1-c1ccc(C(F)(F)F)cc1)c1ccc(Oc2cc3c(cc2Cl)C(C(=O)O)CCO3)cc1` (stereo not drawn) [Example 212, 6-chloro-7-(4-(2-(1-(4-(trifluoromethyl)phenyl)-1H-pyrrol-2-yl)ethylcarbamoyl)phenoxy) chroman-4-carboxylic acid], under setting [1], the 50% effective concentration (EC50) is 3010 nM. With `O=C(Nc1ccc(-c2cccc(C(F)(F)F)c2)cn1)c1ccc(Oc2cc3c(cc2Cl)C(C(=O)O)CCO3)cc1` (stereo not drawn) [Example 119], the EC50 under setting [1] was found to be 422 nM. With `Cc1nsc2ccc(NC(=O)c3ccc(Oc4cc5c(cc4C#N)C(C(=O)O)CCO5)cc3)cc12` (stereo not drawn) [Example 190, 6-cyano-7-(4-(3-methylbenzo[d]isothiazol-5-ylcarbamoyl)phenoxy) chroman-4-carboxylic acid], the EC50 under setting [2] came to 49.3 nM.
